From patent US6613317B1, “Volatile attractants for diabrotica species” (priority 1988, dated 2003)

Tests used:
[1] = system: western corn rootworm (WCR) adults; experiment: Sticky trap attraction in sweet corn plots (Example 1); assay type: in vivo, Diabrotica virgifera virgifera; settings: August first year, single compounds 100 mg per trap
Procedure, shortened: (§1)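 Field trapping in sweet-corn plots beside a Blue Hubbard squash trap crop; lures on mineral-oil-impregnated cotton wicks atop sticky paper-carton traps on 1-m posts, 4 replicates in randomized complete blocks. Beetles counted after 24 h; VIPAE/VIP/TIC mixtures and single components at 1–300 mg per trap, ANOVA/Duncan at P=0.05.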

D. u. howardi adults = assay type: in vivo, Diabrotica undecimpunctata howardi; settings: 1% incorporated into TEX×PEP bait, petri-dish tests
Description: A noncucurbit carrier, 10-mesh corn grits (71% of which passed through a 2-mm screen), was obtained from Illinois Cereal Mills, Paris, Ill. (designated as pesticide carrier grits, 980). This carrier was impregnated with different levels of cucurbitacins by addition of varying amounts of a chloroform extract of AND×MAX fruit containing 0.12% cucurbitacins B and D (Metcalf, et al., Proc. Natl. Acad. Sci. USA, 77:3769-3772 (1980), Metcalf, et al., Environ. Entomol., 11:921-927 (1982)). The cucurbitacin-containing areas were scraped from plates, extracted in anhydrous methanol, centrifuged, and the UV absorption at 210 nm determined by UV spectrophotometry. Content of cucurbitacins was quantified from standard curves of pure cucurbitacins B, D, E and I, and E-glycoside (Metcalf, et al., Proc. Natl. Acad. Sci. USA, 77:3769-3772 (1980), Metcalf, et al., Environ. Entomol., 11:921-927 (1982)).
The various dried, ground, and insecticide-treated baits were given preliminary field evaluation by placing uniform amounts in petri-dish halves (150-mm diameter) that were placed at random on the ground in cucurbit and corn rows heavily infested ith SCR, WCR, and SCB adults. Ten dishes were used for each treatment; the maximum dosage of dried baits used was 300 mg per dish, equivalent to […]. Mortality counts of adult beetles in the dishes were made after 20-40 h.

[2] = system: southern corn rootworm (SCR) adults; experiment: Sticky trap attraction in sweet corn plots (Example 1); assay type: in vivo, Diabrotica undecimpunctata howardi; settings: August first year, single compounds 100 mg per trap
Procedure, shortened: as §1

NCR [3] = settings: in vivo; cited from earlier work
NCR [4] = experiment: Attraction to baited traps relative to controls (summary); assay type: in vivo, Diabrotica barberi; settings: summary statement
Description: 4-Methylphenylethanol, 4-chlorophenylethanol, 4-fluorophenylethanol, phenylethanol, phenylpropanol, 4-methoxyphenylethanol, 3-methoxyphenylethanol, 2-methoxyphenylethanol, 4-methoxyphenylpropanol, phenylethylamine, and phenylpropylamine attract NCR at rates approximately 5-50 times controls.

WCR = experiment: Limit of response rating of squash blossom volatiles on sticky traps (Example 5); assay type: in vivo, Diabrotica virgifera virgifera; settings: 24 hour; four replicate traps; 0.01 mg to 200 mg
Procedure, shortened: (§2)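 Adult Diabrotica beetles were tested against cylindrical sticky traps baited with cotton wicks holding 0.01 mg to 200 mg of individual Cucurbita maxima blossom volatiles. Response limit rated by trap catch.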

NCR [5] = experiment: as above; assay type: in vivo, Diabrotica barberi; settings: 24 hour; four replicate traps; 0.01 mg to 200 mg
Procedure, shortened: as §2

[6] = South Farms, 24 h, mixture 20 mg of each component, n = 4

| SMILES | Mean number of WCR per trap (±standard deviation) [1, 6] [per trap] | relative percent activity of the mean WCR trap catch as compared with the highest mean value in the column ([1]; mixture 20 mg each component) [%] | increase in the kill of SCR beetles (D. u. howardi adults) [fold] | Mean number of SCR per trap (±standard deviation) [2, 6] [per trap] | relative percent activity of the mean SCR trap catch as compared with the highest mean value in the column ([2]; mixture 20 mg each component) [%] | LR for NCR, most effective volatile attractant yet identified (NCR [3]) [mg] | rate of attraction of NCR relative to controls (NCR [4]) | Attractant Rating WCR (by limit of response) (WCR) | Attractant Rating NCR (by limit of response) (NCR [5]) |
| --- | --- | --- | --- | --- | --- | --- | --- | --- | --- |
| C=CCc1ccc(O)c(OC)c1 [XXIV, eugenol] | 2.8 ± 1.0 | 41 | 4 | 2.8 ± 2.8 | 13 | 10 |  |  |  |
| OCC=Cc1ccccc1 [XVIII, cinnamyl alcohol] |  |  |  |  |  |  | 5-20 times | +1 (30-100) | +3 (3-10) |
